The source made the active and inactive calls. No cut-off for these calls is given here.
Columns and labels:
[1] = target: T1, Calpain-1 catalytic subunit (Sus scrofa, UniProt P35750); test: Inhibition of Ca2+-dependent activation of porcine calpain-1 using H-K(FAM)-EVYGMMK(DABCYL)-OH as substrate by FRET assay
T1 sequence (P35750 whole entry): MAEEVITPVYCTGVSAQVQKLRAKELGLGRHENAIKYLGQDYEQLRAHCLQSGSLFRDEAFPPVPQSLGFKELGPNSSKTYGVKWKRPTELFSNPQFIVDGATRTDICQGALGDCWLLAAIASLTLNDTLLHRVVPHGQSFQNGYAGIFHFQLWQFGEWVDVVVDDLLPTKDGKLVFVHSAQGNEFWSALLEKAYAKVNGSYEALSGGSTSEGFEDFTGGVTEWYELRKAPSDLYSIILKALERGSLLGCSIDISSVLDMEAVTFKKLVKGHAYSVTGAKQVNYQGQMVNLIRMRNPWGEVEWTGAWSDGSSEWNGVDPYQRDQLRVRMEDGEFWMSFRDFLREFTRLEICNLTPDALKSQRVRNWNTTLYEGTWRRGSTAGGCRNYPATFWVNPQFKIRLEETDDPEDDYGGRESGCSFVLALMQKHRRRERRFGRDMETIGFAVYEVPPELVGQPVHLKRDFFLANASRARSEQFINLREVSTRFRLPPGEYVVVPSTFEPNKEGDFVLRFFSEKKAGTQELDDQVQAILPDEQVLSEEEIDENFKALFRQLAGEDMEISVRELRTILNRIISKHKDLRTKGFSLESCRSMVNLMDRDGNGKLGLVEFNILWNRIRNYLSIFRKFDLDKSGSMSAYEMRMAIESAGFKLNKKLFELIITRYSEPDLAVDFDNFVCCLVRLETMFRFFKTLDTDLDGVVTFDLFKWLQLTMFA

[2] = target: T1, Calpain-1 catalytic subunit; test: Inhibition of Ca2+-dependent activation of porcine calpain-1 using SucLY-AMC as substrate
[3] = target: T2, Calpain-1 catalytic subunit (Homo sapiens, UniProt P07384); test: Inhibition of human erythrocytes mu-calpain using SLLVY-AMC as substrate after 60 mins
T2 sequence (P07384 whole entry): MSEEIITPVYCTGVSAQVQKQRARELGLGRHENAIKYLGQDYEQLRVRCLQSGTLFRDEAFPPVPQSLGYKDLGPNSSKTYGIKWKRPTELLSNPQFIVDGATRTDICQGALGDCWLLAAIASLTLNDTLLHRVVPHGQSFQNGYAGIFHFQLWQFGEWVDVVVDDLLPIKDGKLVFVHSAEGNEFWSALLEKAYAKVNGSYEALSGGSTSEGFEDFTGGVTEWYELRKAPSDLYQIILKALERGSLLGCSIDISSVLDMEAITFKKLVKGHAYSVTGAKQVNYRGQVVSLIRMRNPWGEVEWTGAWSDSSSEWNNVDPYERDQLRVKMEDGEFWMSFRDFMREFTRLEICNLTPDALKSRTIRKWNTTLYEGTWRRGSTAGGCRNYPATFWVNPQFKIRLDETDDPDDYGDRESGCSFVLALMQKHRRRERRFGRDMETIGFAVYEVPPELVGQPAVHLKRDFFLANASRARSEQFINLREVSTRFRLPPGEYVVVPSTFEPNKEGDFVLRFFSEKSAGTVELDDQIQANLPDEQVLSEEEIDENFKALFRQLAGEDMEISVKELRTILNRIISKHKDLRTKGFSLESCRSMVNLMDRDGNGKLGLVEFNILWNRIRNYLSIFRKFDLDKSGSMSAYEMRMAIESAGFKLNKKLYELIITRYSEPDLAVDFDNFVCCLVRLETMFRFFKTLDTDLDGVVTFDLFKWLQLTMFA

[4] = target: T3, Calpain-2 catalytic subunit (Homo sapiens, UniProt P17655); test: Inhibition of calpain-2 (unknown origin)
T3 sequence (P17655 whole entry): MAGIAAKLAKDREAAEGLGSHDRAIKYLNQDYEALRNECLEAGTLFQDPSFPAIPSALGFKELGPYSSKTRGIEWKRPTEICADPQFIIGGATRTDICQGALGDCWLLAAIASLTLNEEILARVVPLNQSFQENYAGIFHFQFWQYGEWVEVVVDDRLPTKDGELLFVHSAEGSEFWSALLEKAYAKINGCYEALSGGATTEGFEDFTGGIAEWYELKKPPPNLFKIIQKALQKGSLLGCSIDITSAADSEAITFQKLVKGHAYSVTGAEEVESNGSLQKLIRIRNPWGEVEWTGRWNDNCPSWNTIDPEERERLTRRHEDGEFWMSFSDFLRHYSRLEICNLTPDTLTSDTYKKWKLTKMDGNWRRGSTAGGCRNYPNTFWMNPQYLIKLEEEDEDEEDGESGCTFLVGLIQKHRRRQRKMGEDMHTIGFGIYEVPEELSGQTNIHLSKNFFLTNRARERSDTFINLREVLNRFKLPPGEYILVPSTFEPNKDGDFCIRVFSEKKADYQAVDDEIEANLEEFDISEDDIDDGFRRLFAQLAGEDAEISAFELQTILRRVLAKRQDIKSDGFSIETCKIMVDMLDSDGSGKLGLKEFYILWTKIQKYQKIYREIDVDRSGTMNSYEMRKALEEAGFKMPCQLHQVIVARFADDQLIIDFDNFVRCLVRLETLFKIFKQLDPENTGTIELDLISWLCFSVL

[5] = target: T4, Calpain-1 catalytic subunit (Homo sapiens) (UniProt P07384); test: Inhibition of calpain-1 in human neutrophils assessed as cell spreading at 10 uM
T4 sequence (whole entry): T2 sequence (P07384 whole entry)

Row | SMILES | IC50 [1] [nM] | IC50 [2] [nM] | Ki [3] [nM] | Ki [4] [nM] | inhibition [5]
1 | O=C(O)/C(S)=C/c1c[nH]c2cccc(Br)c12 | 6 | 100 |  |  | 
2 | O=C(O)/C(S)=C/c1cccc(Cl)c1 | 4200 | 13100 |  |  | 
3 | O=C(O)/C(S)=C/c1ccc(F)cc1 | 6900 | 5600 |  |  | 
4 | O=C(O)/C(S)=C/c1ccc(Br)cc1 | 1500 | 1500 |  |  | 
5 | O=C(O)/C(S)=C/c1cccc(Br)c1 | 4000 | 8400 |  |  | 
6 | O=C(O)/C(S)=C/c1ccccc1F | 21900 | 23200 |  |  | 
7 | O=C(O)/C(S)=C/c1ccc(I)cc1 | 2200 | 5200 | 210 | 370 | 
8 | O=C(O)/C(S)=C/c1c[nH]c2cccc(F)c12 | 10 | 300 |  |  | 
9 | O=C(O)/C(S)=C/c1c[nH]c2c(F)cccc12 | 120 | 110 |  |  | 
10 | O=C(O)/C(S)=C/c1ccc(Cl)cc1 | 2600 | 15000 |  |  | 
11 | O=C(O)/C(S)=C/c1ccccc1Br | 21000 | 9100 |  |  | 
12 | O=C(O)/C(S)=C/c1c[nH]c2c(Cl)cccc12 | 10 | 90 |  |  | 
13 | O=C(O)/C(S)=C/c1c[nH]c2cccc(Cl)c12 | 20 | 140 |  |  | 
14 | O=C(O)/C(S)=C/c1cccc(F)c1 | 19000 | 31500 |  |  | 
15 | O=C(O)/C(S)=C/c1c[nH]c2c(I)cccc12 | 90 | 220 |  |  | 
16 | O=C(O)/C(S)=C/c1ccccc1Cl | 11900 | 20700 |  |  | 
17 | O=C(O)/C(S)=C/c1c[nH]c2c(Br)cccc12 | 2 | 70 |  |  | 
18 | O=C(O)/C(S)=C/c1cccc(I)c1 | 4300 | 23900 |  |  | 

Results, then the compound that gave them:

Row | IC50 [1] [nM] | IC50 [2] [nM] | Ki [3] [nM] | Ki [4] [nM] | inhibition [5] | SMILES
19 | 800 | 930 | 260 | 5330 |  | O=C(O)/C(S)=C/c1c[nH]c2ccc(F)cc12
20 | 250 | 50 |  |  |  | O=C(O)/C(S)=C/c1c[nH]c2ccc(Cl)cc12
21 | 7 | 90 |  |  | Active | O=C(O)/C(S)=C/c1c[nH]c2cc(Br)ccc12
22 | 100 | 90 |  |  |  | O=C(O)/C(S)=C/c1c[nH]c2ccc(I)cc12
23 | 6 | 20 |  |  |  | O=C(O)/C(S)=C/c1c[nH]c2ccc(Br)cc12
24 | 10 | 300 |  |  | Active | O=C(O)/C(S)=C/c1c[nH]c2cc(F)ccc12
25 | 210 | 100 |  |  | Active | O=C(O)/C(S)=C/c1c[nH]c2cc(Cl)ccc12
26 | 170 | 300 |  |  |  | O=C(O)/C(S)=C/c1c[nH]c2cc(I)ccc12

Source: ChEMBL document CHEMBL3217751, “Potent inhibition of Ca2+-dependent activation of calpain-1 by novel mercaptoacrylates” (Medchemcomm, 2012)
